The source of these data is publication PMC11609934, “Exploration and characterization of the antimalarial activity of cyclopropyl carboxamides that target the mitochondrial protein, cytochrome b” (European Journal of Medicinal Chemistry, 2024).

Series [1] concerns W466-resistant populations. The experiment in a line: 72 h growth assay against W466-resistant populations. It is filed as cell-based, Plasmodium falciparum. The note with it: Plasmodium falciparum. An excerpt:
To determine the mechanism of action of the cyclopropyl carboxamide series, a forward genetic resistance study was undertaken on the two hit compounds W466 (1) and W499 (2).
The structures of W466 (1) and W499 (2) are slightly different although they appear to belong to the same structural class. To confirm if W466 (1) and W499 (2) may have the same molecular target, W466 (1) and W499 (2) were each evaluated for cross resistance against their respective resistant populations from the pulsed forward genetic study (Fig. 2).

Series [2] deals with P. falciparum 3D7 parasites. The experiment in a line: P. falciparum 3D7 asexual stage LDH assay (72 h). The series is classed as cell-based, Plasmodium falciparum. The following applies: Plasmodium falciparum, 3D7 / DSM 265, parent 3D7 for resistant populations; LDH assay, 3 experiments (SYBR-green for DSM265); read-out: Pf 3D7 EC50 (SD). Put shortly: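 Asexual P. falciparum 3D7 parasites were grown for 72 h over a 10-point, 3-fold series starting at 1 μM in 0.1% DMSO, with 100 nM chloroquine as negative growth control. After freeze-thaw, parasite LDH was read at 650 nm, and EC50 came from a variable-slope sigmoidal fit.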

Series [3] concerns ring-stage P. falciparum parasites. The experiment in a line: Asexual stage of arrest assay. It is filed as cell-based, Plasmodium falciparum. The following applies: 10 times EC50, sampled every 12 h for 48 h. As for the experimental part: Characterization of asexual stage phenotype and rate of asexual kill is important in determining the downstream application and TCP of an antimalarial series. […] Parasites were sampled every 12 h for 48 h, to prepare Giemsa-stained blood smears for analysis by microscopy. Parasitemia of each sample was measured by flow cytometry using SYBR-Green DNA staining.
Asexual Stage of Arrest Assay. This assay was conducted as previously described.

For series [4], the system named is Pf Dd2 expressing ScDHODH. The arrangement: method as in Nguyen, Dans et al. [8]. The following applies: known drug controls; ref Nguyen, Dans et al. [8]; cited from earlier work.
Another series relates to Pf Dd2 parental line. The note with it: known drug controls; ref Nguyen, Dans et al. [8]; cited from earlier work.
The test system of series [5] is W499-resistant populations. The experiment in a line: microbe, parasite or virus in culture. It is filed as cell-based, Plasmodium falciparum. The note with it: for pEC50: Plasmodium falciparum. From the text: To confirm if W466 (1) and W499 (2) may have the same molecular target, W466 (1) and W499 (2) were each evaluated for cross resistance against their respective resistant populations from the pulsed forward genetic study (Fig. 2).

A further series has as its system mitochondrial ETC. The experiment in a line: P. falciparum oxygen consumption rate (OCR) assay (Seahorse XFe96). The series is classed as cell-based, Plasmodium falciparum. The following applies: compounds 5 μM. The method, then:
To provide further evidence to support the cyclopropyl carboxamide series targeting cyt b, an oxygen consumption rate (OCR) assay was performed using a Seahorse XFe96 Flux Analyzer. The primary role of the mitochondria ETC is to produce ATP oxidative phosphorylation, and thus the oxygen consumption directly quantifies mitochondrial ETC activity. In this assay, malate, which is a substrate of malate quinone dehydrogenase (MQD), was added to provide a base line of oxygen consumption at approximately 50 pmol/min (Fig. 4). […] Finally, NaN3 was added to inhibit complex IV to bring the OCR back to basal levels.
Fig. 4 P. falciparum oxygen consumption rate (OCR) assay. Data represent the means and SDs of 3 technical replicates. Time points and reagent injections were as follows, 1. First 5 timepoints measured the basal level of malate-dependent OCR; 2. Compounds (5 μM) were injected independently (indicated by arrow), and OCR measured for 8-timepoints; 3. TMPD (a cytochrome c electron donor) was injected, and OCR measured for 5 time points; 4. NaN3 (a complex IV inhibitor) was then added, and OCR measured for 5 time points.
ETC Biosensor Assay. This assay was performed as previously described. Briefly, 3 × 10^8 trophozoite infected RBCs were purified using the SuperMACS II separator (Miltenyi Biotec, Germany). The trophozoite-stage parasites were released from erythrocytes by treating them with 0.05 % (w/v) pre-warmed saponin in phosphate-buffered saline (PBS) at 37 °C for 3 min. The cells were washed with pre-warmed PBS, three times. […] The cells were measured for oxygen consumption rate (OCR) using Seahorse XFe96 flux analyzer (Agilent). The OCR was assessed for five cycles of 20 s mixing, 1 min waiting, 2.5 min measuring to establish baseline OCR before any substrate injections, for eight cycles of 20 s mixing, 1 min waiting followed by 2.5 min measuring after inhibitor injection from port A and for five cycles of 20 s mixing 1 min waiting, 2.5 min measuring after TMPD, and NaN3, injections.

The test system of a further series is Pf SB1-A6 strain. The arrangement: method as in Nguyen, Dans et al. [8]. The note with it: known drug controls; ref Nguyen, Dans et al. [8]; cited from earlier work.
For series [6], the system named is Pf 3D7 3-oxadiazole quinolone resistant strain with a V259L mutation in the Qo site of cyt b. Also noted: method as in Nguyen, Dans et al. [8]. The following applies: known drug controls; ref Nguyen, Dans et al. [8]; read-out: Pf cyt b mutant strains EC50 3D7 cyt b(V259L); cited from earlier work.
Series [7] relates to Pf Dd2 strain with an I22L mutation in the Qi site cyt b. The arrangement: method as in Nguyen, Dans et al. [8]. The following applies: known drug controls; ref Nguyen, Dans et al. [8]; read-out: Pf cyt b mutant strains EC50 Dd2 cyt b(I22L); cited from earlier work.
The next series concerns human HepG2 cell line. The experiment in a line: Human HepG2 growth inhibition assay (Cell TitreGlo, 48 h). It is filed as cell-based. The following applies: HepG2 cell growth inhibition over 48 h. The gist of the method:
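HepG2 cells (1000/well, DMEM + 10% FCS) exposed 48 h at 37 °C, 5% CO2 to compound from 50 μM top concentration in 1:2 dilutions, 0.5% DMSO final. Viability read by Cell Titer Glo, normalised to DMSO and 10 μM bortezomib; EC50 by four-parameter variable-slope fit.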

Setting [8] is: read-out: W466-resistant populations EC50 (SD) #1.
[9] abbreviates: read-out: W466-resistant populations EC50 (SD) #2.
[10] abbreviates: read-out: W466-resistant populations EC50 (SD) #3.
Where [11] appears, read: DSM265, read-out: W499-resistant populations EC50 (SD) #2.
Setting [12] is: DSM265, read-out: W499-resistant populations EC50 (SD) #3.

pEC50: −log10 of the molar value. Like-named read-outs stand apart in the source and are kept apart here.

One may read the pEC50 as the negative decadic logarithm of the EC50, by convention in mol/L. For `O=C1C(O)=C([C@H]2CC[C@H](c3ccc(Cl)cc3)CC2)C(=O)c2ccccc21` [ATQ, atovaquone], the negative logarithm of the EC50 (pEC50) in [1] (read-out: EC50 against W466-resistant parasites) was 9.00; in [1] (setting [8]), 8.70; in series [1] (setting [9]), 9.00; in [1] (setting [10]), 9.00; in series [2], 9.00; in series [4], below 5.00. Also, the pEC50 in the series with Pf Dd2 parental line is 9.00; in series [5] (setting [11]), 8.40; in [5] (setting [12]), 8.52; in the series on Pf SB1-A6 strain, below 5.00. The “asexual stage of arrest” value in [3] is “arrest at the trophozoite stage”. The “effect on malate-dependent oxygen consumption rate (OCR)” value in the series on mitochondrial ETC is “an OCR reduction was detected”.
`Cc1cc(Nc2ccc(S(F)(F)(F)(F)F)cc2)n2nc(C(C)(F)F)nc2n1` [DSM265]: the pEC50 is 7.72 in series [1] (setting [8]); 7.89 in [1] (setting [9]); 7.89 in series [1] (setting [10]); 7.28 in series [2]; below 5.00 in [4]; 7.62 in the series on Pf Dd2 parental line. Besides, the pEC50 in series [5] (setting [11]) is below 6.00; in [5] (setting [12]) it was below 6.00; in [5] (read-out: EC50 against W499-resistant parasites) it was below 6.00; in the series on Pf SB1-A6 strain, below 5.00. Also, the “fold shift in EC50 against W499-resistant populations compared to wildtype 3D7” value in series [5] was above 10 fold. Besides, in the series with mitochondrial ETC, the “effect on malate-dependent oxygen consumption rate (OCR)” value is reported as “didn't change the basal OCR”.
On to `COc1cc2[nH]c(C)c(-c3ccc(Oc4ccc(OC(F)(F)F)cc4)cc3)c(=O)c2cc1Cl` [ELQ300], for which the pEC50 in series [1] (setting [8]) is 7.44; in series [1] (setting [9]) it was 7.74; in series [1] (setting [10]) it was 7.70; in series [2], 7.89; with Pf Dd2 parental line, 7.68; in series [5] (setting [11]), 7.28. For the same compound, the pEC50 in series [5] (setting [12]) was 7.35; in series [6], 7.92; in series [7], 6.75. In addition, the “fold shift in EC50 against W499-resistant populations compared to wildtype 3D7” value in [5] is 2 fold.
In general, CC50 refers to the concentration at which the toxic effect on the cells reaches its halfway point. Higher therefore signals lower toxicity to the cells. On to “N-Cyclopropyl-4-((cyclopropyl(3,4-dimethylbenzyl)amino)methyl)benzamide [Compound 79]”, for which the CC50 in the series on human HepG2 cell line was above 40 µM.
